Data on 22 molecules can be found in patent publication US4417052A, “Phenyl-lower-alkyl piperidines and pyrrolidines” (Sterling Drug Inc., priority 1981, dated 1983).

Where a name gives a salt, the structure may show the parent alone.

Series [1] concerns adjuvant-induced arthritis. Put plainly: inhibition of adjuvant-induced arthritis test (A.A.). The series is classed as in vivo. As to conditions: oral; for A.A. percent inhibition (in brackets): corn oil vehicle; for A.A. percent inhibition (in parentheses): second experiment; for A.A. percent inhibition (Table B, footnote a): (a) data obtained after 17 days on test and 9 medications; for A.A. percent inhibition (Table B): formula V amides; for inhibition in vivo at 160 µmol/kg: dose 0.16 millimoles/kg. As for the experimental part:
(§1) Anti-inflammatory activity was determined using (1) the inhibition of carrageenin-induced foot edema test essentially described by Winter et al., Proc. Soc. Exp. Biol. and Med. 111, 554 (1962) as modified by Van Arman et al., J. Pharmacol. Exptl. Therap. 150, 328 (1965) and (2) a modification of the inhibition of adjuvant-induced arthritis test described by Pierson, J. Chronic Diseases 16, 863 (1963) and Glenn et al., Am. J. Vet. Res. 26, 1180 (1965).
(§2) The N-{2-,3- and 4-[R1 -(phenyl)-C(=X)]-phenyl-lower-alkyl}amines of formulas I, Ia and Ib of the invention have been tested in the carrageenin edema (CE) and adjuvant arthritis (AA) tests and found to have anti-inflammatory activity. For comparative purposes, data obtained in the carrageenin edema test on the reference compound (designated "Ref."), 4[(3-benzoylphenyl)methyl]morpholine, disclosed in French Patent 1,549,342, are also given. All data were obtained on oral administration.

Series [2] relates to carrageenin-induced foot edema. Put plainly: inhibition of carrageenin-induced foot edema test (C.E.). The format is in vivo. As to conditions: oral; for inhibition in vivo at 4 µmol/kg: dose 0.004 millimoles/kg; for inhibition in vivo at 20 µmol/kg: dose 0.02 millimoles/kg; for C.E. percent inhibition (Table B): formula V amides; for C.E. percent inhibition (Table B, footnote a): (a) data obtained after 17 days on test and 9 medications. On the procedure: as §1, §2

The mark [3] stands for this setting: dose 0.005 millimoles/kg, read-out: A.A. percent inhibition.
Where [4] appears, read: dose 0.02 millimoles/kg, read-out: A.A. percent inhibition.
[5] abbreviates: dose 0.08 millimoles/kg, read-out: A.A. percent inhibition.
Where [6] appears, read: read-out: C.E. percent inhibition.
Setting [7] is: dose 0.08 millimoles/kg, read-out: C.E. percent inhibition.
The mark [8] stands for this setting: read-out: A.A. percent inhibition.
[9] abbreviates: dose 0.324 millimoles/kg, read-out: C.E. percent inhibition.

Take `CC(CN1CCCCC1CC1CCCCC1)c1cccc(C(=O)c2ccccc2)c1.Cl` (single isomer, unassigned) [14(a), 2-cyclohexylmethyl-1-[2-(3-benzoylphenyl)propyl]piperidine hydrochloride]: the “A.A. percent inhibition (in brackets)” value is reported as 0% in series [1] (dose 0.0013 millimoles/kg), 39% in series [1] (dose 0.005 millimoles/kg) and 65% in series [1] (dose 0.02 millimoles/kg). The figures for the “A.A. percent inhibition (in parentheses)” value in series [1] (dose 0.0013 millimoles/kg), in series [1] (dose 0.005 millimoles/kg) and in series [1] (dose 0.02 millimoles/kg) were 28%, 46% and 87%, respectively. The inhibition in vivo at 1.3 µmol/kg in series [1] (dose 0.0013 millimoles/kg, read-out: A.A. percent inhibition) was 16%. Besides, the inhibition in vivo at 5 µmol/kg in series [1] (setting [3]) stood at 46%. Moreover, the inhibition in vivo at 20 µmol/kg in series [1] (setting [4]) is 79%.
With `CC(CN1CCC2(CC1)OCCO2)c1cccc(C(=O)c2ccccc2)c1` (stereo not drawn) [7G (base), 8-[2-(3-Benzoylphenyl)propyl]-1,4-dioxa-8-azaspiro[4,5]decane], the inhibition in vivo at 80 µmol/kg in series [1] (setting [5]) came out at 76%. Besides, in series [2] (setting [6]), the inhibition in vivo at 4 µmol/kg is 33% and the inhibition in vivo at 20 µmol/kg stood at 42%.
In the same order, the values of `CC(CN1CCOCC1)c1cccc(C(=O)c2ccccc2)c1` (stereo not drawn) [7H (base), 4-[2-(3-Benzoylphenyl)propyl]morpholine] are 81%, 29% and 44%.
For `CC(C(=O)N1CCCCC1CC1CCCCC1)c1cccc(C(=O)c2ccccc2)c1` (stereo not drawn) [Example 1 (Table B), 2-cyclohexylmethyl-1-[α-(3-benzoylphenyl)propionyl]piperidine], the “A.A. percent inhibition (Table B, footnote a)” value in series [1] (dose 0.324 millimoles/kg) is reported as 67%. Moreover, the “C.E. percent inhibition (Table B)” value in series [2] (dose 0.08 millimoles/kg) is reported as 21%. In series [2] (dose 0.324 millimoles/kg), the “C.E. percent inhibition (Table B, footnote a)” value was found to be 36%.
For the molecule `CC(C(=O)N1CCN(C2CCCCC2)CC1)c1cccc(C(=O)c2ccccc2)c1.Cl` (stereo not drawn) [Example 1E, 4-Cyclohexyl-1-[α-(3-benzoylphenyl)propionyl]piperazine hydrochloride], in series [1] (dose 0.08 millimoles/kg), the “A.A. percent inhibition (Table B)” value came out at 63%. Besides, the convulsions and salivation result in series [2] (C.E. test, dose 0.324 millimoles/kg) was “Convulsions and salivation produced in 2 of 8 test animals”. For the same molecule, the “C.E. percent inhibition (Table B)” value in series [2] (dose 0.08 millimoles/kg) turned out to be 10%; in series [2] (dose 0.324 millimoles/kg) it was 61%.
`CC(C(=O)N1CCN(c2ccccc2)CC1)c1cccc(C(=O)c2ccccc2)c1` (stereo not drawn) [Example 1F, 4-Phenyl-1-[α-(3-benzoylphenyl)propionyl]piperazine]: the “A.A. percent inhibition (Table B)” value in series [1] (dose 0.324 millimoles/kg) is given as 58%. Besides, the results for the “C.E. percent inhibition (Table B)” value in series [2] (dose 0.08 millimoles/kg) and in series [2] (dose 0.324 millimoles/kg) were 2% and 18%, respectively.
As for `CC(C(=O)N1CCC(CC2CCCCC2)CC1)c1cccc(C(=O)c2ccccc2)c1` (stereo not drawn) [Example 1L, 4-Cyclohexylmethyl-1-[α-(3-benzoylphenyl)propionyl]piperidine], the “A.A. percent inhibition (Table B, footnote a)” value in series [1] (dose 0.324 millimoles/kg) turned out to be 74%. For the same molecule, the “C.E. percent inhibition (Table B)” value in series [2] (dose 0.08 millimoles/kg) came to 13%. Further, the “C.E. percent inhibition (Table B, footnote a)” value in series [2] (dose 0.324 millimoles/kg) was 31%.
Turning to `COc1ccc(C(O)c2cccc(C(C)CN3CCCCC3CC3CCCCC3)c2)cc1` (stereo not drawn) [Example 3, 2-cyclohexylmethyl-1-{2-[3-(α-hydroxy-4-methoxybenzyl)phenyl]propyl}piperidine], the inhibition in vivo at 5 µmol/kg in series [1] (setting [3]) turned out to be 0%; in series [2] (dose 0.005 millimoles/kg, read-out: C.E. percent inhibition) it was 0%. Besides, the inhibition in vivo at 20 µmol/kg in series [1] (setting [4]) is 2%; in series [2] (setting [6]) it was 3%. The results for the inhibition in vivo at 80 µmol/kg in series [1] (setting [5]) and in series [2] (setting [7]) were 30% and 35%, respectively.
Turning to `CC(CN1CCCC1CC1CCCCC1)c1cccc(C(O)c2ccccc2)c1` (stereo not drawn) [Example 3B, 2-Cyclohexylmethyl-1-{2-[3-(α-hydroxybenzyl)phenyl]propyl}pyrrolidine], the inhibition in vivo at 160 µmol/kg in series [1] (setting [8]) was 91%. Moreover, the inhibition in vivo at 80 µmol/kg in series [2] (setting [7]) came out at 19%. In addition, in series [2] (setting [9]), the inhibition in vivo at 324 µmol/kg was 63%.
As for `COc1ccc(C(=O)c2cccc(C(C)CN3CCCCC3CC3CCCCC3)c2)cc1` (stereo not drawn) [Example 7, 2-cyclohexylmethyl-1-{2-[3-(4-methoxybenzoyl)phenyl]propyl}piperidine], the inhibition in vivo at 80 µmol/kg in series [1] (setting [5]) came to 63%. In series [2] (setting [6]), the inhibition in vivo at 4 µmol/kg stood at 0% and the inhibition in vivo at 20 µmol/kg was determined as 22%.
With `CC(CN1CCCC1CC1CCCCC1)c1cccc(C(=O)c2ccccc2)c1` (stereo not drawn) [Example 7A, 2-Cyclohexylmethyl-1-[2-(3-benzoylphenyl)propyl]pyrrolidine], the inhibition in vivo at 160 µmol/kg in series [1] (setting [8]) worked out at 90%. For the same molecule, the inhibition in vivo at 80 µmol/kg in series [2] (setting [7]) was 45%. Further, in series [2] (setting [9]), the inhibition in vivo at 324 µmol/kg is 60%.
As to `CC(CN1CCCCC1CC1CCCCC1)c1cccc(C(=O)c2ccc(F)cc2)c1` (stereo not drawn) [Example 7B, 2-Cyclohexylmethyl-1-{2-[3-(4-fluorobenzoyl)phenyl]propyl}piperidine], the inhibition in vivo at 5 µmol/kg in series [1] (setting [3]) is 61%. For the same molecule, the inhibition in vivo at 20 µmol/kg in series [1] (setting [4]) was found to be 55%; in series [2] (setting [6]) it was 38%. For the same molecule, in series [1] (setting [5]), the inhibition in vivo at 80 µmol/kg stood at 85%. The inhibition in vivo at 4 µmol/kg in series [2] (setting [6]) was found to be 3%.
For the molecule `CC(CN1CCCCC1CCCC1CCCCC1)c1cccc(C(=O)c2ccccc2)c1` (stereo not drawn) [Example 7D, 2-(3-Cyclohexylpropyl)-1-[2-(3-benzoylphenyl)propyl]piperidine], the inhibition in vivo at 160 µmol/kg in series [1] (setting [8]) was 100%. The inhibition in vivo at 80 µmol/kg in series [2] (setting [7]) was determined as 37%. Besides, the inhibition in vivo at 324 µmol/kg in series [2] (setting [9]) was determined as 49%.
For the molecule `CC(CN1C(C)CCCC1C)c1cccc(C(=O)c2ccccc2)c1` (stereo not drawn) [Example 13, 2,6-dimethyl-1-[2-(3-benzoylphenyl)propyl]piperidine], the inhibition in vivo at 4 µmol/kg in series [1] (dose 0.004 millimoles/kg, read-out: A.A. percent inhibition) came out at 37%; in series [2] (setting [6]), 0%. Also, the inhibition in vivo at 15 µmol/kg in series [1] (dose 0.015 millimoles/kg, read-out: A.A. percent inhibition) is 52%; in series [2] (dose 0.015 millimoles/kg, read-out: C.E. percent inhibition) it was 15%. Moreover, the inhibition in vivo at 60 µmol/kg is 78% in series [1] (dose 0.06 millimoles/kg, read-out: A.A. percent inhibition) and 37% in series [2] (dose 0.06 millimoles/kg, read-out: C.E. percent inhibition). Further, in series [2] (setting [7]), the inhibition in vivo at 80 µmol/kg is 54%. In addition, the inhibition in vivo at 324 µmol/kg in series [2] (setting [9]) was 56%.
Take `CC(CN1CCCCC1)c1cccc(C(=O)c2ccccc2)c1` (stereo not drawn) [Example 14A, 1-[2-(3-Benzoylphenyl)propyl]piperidine hydrochloride]: the inhibition in vivo at 80 µmol/kg in series [1] (setting [5]) is 49%; in series [2] (setting [7]) it was 39%. Also, the inhibition in vivo at 324 µmol/kg in series [2] (setting [9]) turned out to be 67%.
As to `CC(CN1CCCCC1CC1CCCCC1)c1cccc(C(=NO)c2ccccc2)c1` (stereo not drawn) [Example 15, 2-cyclohexylmethyl-1-[2-(3-benzoylphenyl)propyl]piperidine oxime], the inhibition in vivo at 20 µmol/kg in series [1] (setting [4]) is 92%; in series [2] (setting [6]), 43%. Moreover, in series [1] (setting [5]), the inhibition in vivo at 80 µmol/kg is 91%. Moreover, in series [2] (setting [6]), the inhibition in vivo at 4 µmol/kg was found to be 16%.
As to `CC(CN1CCCCC1CC1CCCCC1)c1cccc(C(N)c2ccccc2)c1` (stereo not drawn) [Example 16, 2-cyclohexylmethyl-1-{2-[3-(α-aminobenzyl)phenyl]propyl}piperidine dihydrochloride], the inhibition in vivo at 5 µmol/kg in series [1] (setting [3]) is 80%. The inhibition in vivo at 20 µmol/kg in series [1] (setting [4]) stood at 89%. In addition, the inhibition in vivo at 80 µmol/kg in series [1] (setting [5]) was found to be 108%. Moreover, in series [2] (setting [6]), the inhibition in vivo at 4 µmol/kg was found to be 16% and the inhibition in vivo at 20 µmol/kg is 31%.
Regarding `NC(c1ccccc1)c1cccc(CN2CCOCC2)c1` (stereo not drawn) [Example 16B, 4-{[3-(α-Aminobenzyl)phenyl]methyl}morpholine dihydrochloride monohydrate], the inhibition in vivo at 324 µmol/kg in series [1] (dose 0.324 millimoles/kg, read-out: A.A. percent inhibition) is 0%; in series [2] (setting [9]), 36%. For the same molecule, the inhibition in vivo at 80 µmol/kg in series [2] (setting [7]) was determined as 0%.
As to `CC1CCCC(C)N1CCc1ccc(O)c(C(=O)c2ccccc2)c1` (stereo not drawn) [Example 19, 2,6-dimethyl-1-[2-(3-benzoyl-4-hydroxyphenyl)ethyl]piperidine hydrochloride], the inhibition in vivo at 160 µmol/kg in series [1] (setting [8]) was found to be 1%. In series [2] (setting [6]), the inhibition in vivo at 20 µmol/kg turned out to be 5%. Further, the inhibition in vivo at 80 µmol/kg in series [2] (setting [7]) was 0%. In addition, the inhibition in vivo at 324 µmol/kg in series [2] (setting [9]) came out at 23%.
`CC(c1cccc(C(=O)c2ccccc2)c1)N1CCOCC1` (stereo not drawn) [Example 21, 4-[1-(3-benzoylphenyl)ethyl]morpholine]: in series [2] (setting [7]), the inhibition in vivo at 80 µmol/kg worked out at 32%. Besides, the inhibition in vivo at 324 µmol/kg in series [2] (setting [9]) stood at 46%.
On the same counts, the results for `CN(C)C(c1ccccc1)c1cccc(CCN2CCOCC2)c1` (stereo not drawn) [Example 22, 4-{2-[3-(α-dimethylaminobenzyl)phenyl]ethyl}morpholine] are 29% and 63%.
On to `O=C(c1ccccc1)c1cccc(CN2CCOCC2)c1` [Ref., 4[(3-benzoylphenyl)methyl]morpholine, reference compound], for which the inhibition in vivo at 80 µmol/kg in series [2] (setting [7]) is 0%. In series [2] (setting [9]), the inhibition in vivo at 324 µmol/kg is 23%.
